These results are taken from patent US7674802B2, “N-linked aryl heteroaryl inhibitors of LTA4H for treating inflammation” (deCODE genetics, ehf, priority 2005, dated 2010).

Where a name gives a salt, the structure may show the parent alone. Read-outs that look alike come from different tables or passages of the source.

One test concerns the target T1, human LTA4 hydrolase (Homo sapiens, UniProt P09960).
T1 construct: A human LTA4 hydrolase full-length cDNA clone (NM_000895) was purchased; His tag (own knowledge: pDEST17 adds an N-terminal 6xHis); made in house; host or cells: Escherichia coli BL21-AI
T1 sequence (P09960 1-611): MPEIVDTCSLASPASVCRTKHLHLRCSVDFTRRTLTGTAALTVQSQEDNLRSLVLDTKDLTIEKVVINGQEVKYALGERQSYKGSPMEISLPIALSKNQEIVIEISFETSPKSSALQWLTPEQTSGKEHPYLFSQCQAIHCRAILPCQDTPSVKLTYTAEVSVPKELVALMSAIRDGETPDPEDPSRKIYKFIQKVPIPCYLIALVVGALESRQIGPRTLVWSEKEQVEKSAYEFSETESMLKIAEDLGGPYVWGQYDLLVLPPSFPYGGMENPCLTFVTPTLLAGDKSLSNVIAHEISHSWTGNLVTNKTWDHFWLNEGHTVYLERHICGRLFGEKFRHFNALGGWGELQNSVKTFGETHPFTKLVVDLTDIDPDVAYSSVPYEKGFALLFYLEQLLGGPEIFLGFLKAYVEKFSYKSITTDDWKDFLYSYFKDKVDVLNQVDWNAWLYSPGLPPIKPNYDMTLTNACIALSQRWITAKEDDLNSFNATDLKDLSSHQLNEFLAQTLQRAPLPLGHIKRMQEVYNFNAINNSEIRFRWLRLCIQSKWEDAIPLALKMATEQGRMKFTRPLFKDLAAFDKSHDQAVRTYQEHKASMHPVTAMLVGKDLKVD
The experiment in a line: In vitro assay testing inhibitory activity against purified recombinant human LTA4 hydrolase. The test is classed as biochemical.
Excerpt: (1) In vitro Assay Testing Inhibitory Activity Against Purified Recombinant Human LTA4 Hydroase:
A human LTA4 hydrolase full-length cDNA clone (NM_000895) was purchased from OriGene Technologies (Rockville, Md.). The gene was amplified by polmerase chain reaction and transferred via pDONR201 into the bacterial expression vector pDEST17 by recombination (both plasmids from Invitrogen, Carlsbad, Calif.). The resulting construct was transformed into Escherichia coli BL21-AI (Invitrogen), and expression was induced by chemical induction with arabinose. The recombinant enzyme was purified by chromatography on a FPLC system (Amersham Biosciences, Uppsala, Sweden) using immobilized metal affinity chromatography (Ni-NTA Superflow, Qiagen, Hilden, Germany) and anion exchange chromatography (MonoQ HR 10/10, Amersham Biosciences).
(§1) The compounds of the invention were incubated in a series of dilutions with 200 nM of recombinant enzyme in assay buffer (100 mM Tris-HCl, 100 mM NaCl, 5 mg/ml fatty-acid free BSA, 10% DMSO, pH 8.0) for 10 min at room temperature to allow binding between LTA4 hydrolase and the inhibitors. LTA4 was prepared by alkaline hydrolysis of LTA4 methyl ester (Biomol, Plymouth Meeting, Pa., or Cayman Chemicals, Ann Arbor, Mich.). A solution of 10 μg of the ester was dried under a nitrogen stream and redissolved in 60 μl of a solution of 80% aceton and 20% 0.25 M NaOH.
After incubation for 40 min at room temperature the resulting approximately 500 μM tock of LTA4 was kept at −80° C. for no more than a few days prior to use.
Immediately before the assay, LTA4 was diluted to a concentration of 10 μM in assay buffer (without DMSO) and added to the reaction mixture to a final concentration of 2 μM to initiate the enzyme reaction. After incubation for 120 sec at room temperature, the reaction was stopped by ading 2 volumes of chilled quenching buffer, containing acetonitril with 1% acetic acid and 225 nM LTB4-d4 (Biomol). The samples were then kept at 4° C. over night to complete protein precipitation and centrifuged for 15 min at 1800 g. LTB4 formed was measured by LC-MS/MS using LTB4-d4 as an internal standard and an external LTB4 standard (Biomol) as reference. Briefly, the analyte was separated from LTB4 isomers formed by spontaneous hydrolysis of LTA4 using isocratic elution (modified protocol from Mueller et al. (1996), J. Biol. Chem. 271, 24345-24348) on a HPLC system (Waters, Milford, Mass.) and analyzed on a tandem quadrupole mass spectrometer (Waters). MRM transitions followed on 2 channels were 335.2>195.3 (LTB4) and 339.2>197.3 (LTB4-d4). Based on the amounts of LTB4 found at each inhibitor concentration, a dose-response curve was fitted to the data and an IC50 value was calculated.
as §1, with “NaOH. After incubation for 40 min at room temperature the resulting approximately 500 μM tock of LTA4 was kept at −80° C. for no more than a few days prior to use.” for “NaOH.”

For test [1], the system named is ionophore-induced LTB4 production. As to conditions: oral administration; cited from earlier work.
For test [2] the test system is unchanged. As to conditions: oral administration; cited from earlier work. The source holds these as a separate data set.
For test [3] the following is noted: eight weeks of treatment, primate model; cited from earlier work.
Setting [4] is: Table I, read-out: IC50 (μM) (hLTA4H).
Setting [5] is: Table IV, read-out: hLTA4H Enyzme IC 50.
Where [6] appears, read: Table V, read-out: hLTA4H Enzyme IC50.
Where [7] appears, read: Table II, read-out: IC50 (μM)(hLTA4H).
Where [8] appears, read: Table III, read-out: IC50 (μM) (hLTA4H).

For `CN(CCCOc1ccc(-n2nc3ccccc3c2Cl)cc1)CCCC(=O)O` [Example 6, 4-({3-[4-(3-Chloro-indazol-2-yl)-phenoxy]-propyl}-methyl-amino)butyric acid Hydrochloride], the IC50 at human LTA4 hydrolase (setting [4]) and on human LTA4 hydrolase (setting [5]) was under 5 µM each time.

Take `CNCCCOc1ccc(-n2nc3ccccc3c2Cl)cc1` [Example 4, {3-[4-(3-Chloro-indazol-2-yl)-phenoxy]-propyl}-methyl-amine hydrochloride]: the IC50 at human LTA4 hydrolase (setting [4]) and on human LTA4 hydrolase (setting [5]) was under 5 µM each time.

For `Cc1cn(-c2ccc(OC[C@H]3CCCN3)cc2)c2ccccc12`, on human LTA4 hydrolase (setting [6]), the IC50 is over 20 µM.

For the molecule `CN(CCCC(=O)O)CCOc1ccc(-n2nc3ccccc3c2Cl)cc1` [Example 3, 4-({2-[4-(3-Chloro-indazol-2-yl)-phenoxy]-ethyl}-methyl-amino)butyric acid hydrchloride salt], the IC50 on human LTA4 hydrolase (setting [4]) and at human LTA4 hydrolase (setting [5]) was under 5 µM in each case.

On to `CC1Cc2ccccc2N1c1ccc(OC[C@H]2CCCN2)cc1` (stereo partly shown), for which the IC50 at human LTA4 hydrolase (setting [6]) is over 20 µM.

In the case of `CN(CCCOc1ccc(Cc2ccccc2)cc1)CCC(=O)O.Cl` [SC57461], the “inhibition of ionophore-induced LTB4 production in rat peritoneum in vivo” value in test [1] was “inhibition of ionophore-induced LTB4 production”. The “inhibition of ionophore-induced LTB4 production in mouse blood ex vivo” value in test [2] was “inhibition of ionophore-induced LTB4 production”. Moreover, the colitis symptoms entry in test [3] is “significantly improved colitis symptoms”.

Take `Clc1c2ccccc2nn1-c1ccc(OCCN2CCCCC2)cc1` [Example 1, 3-Chloro-2-[4-(2-piperidin-1-yl-ethoxy)-phenyl]-2H-idazole]: the IC50 on human LTA4 hydrolase (setting [7]) and at human LTA4 hydrolase (setting [5]) was under 5 µM in each case.

Regarding `O=C(O)CCCN1CCC[C@H]1COc1ccc(-n2nc3ccccc3c2Cl)cc1` [Example 19, 4-{(S)-2-[4-(3-Chloro-indazol-2-yl)-phenoxymethyl]-pyrrolidin-1-yl}-butyric acid Hydrochloride], the IC50 on human LTA4 hydrolase (setting [8]) and on human LTA4 hydrolase (setting [5]) was under 5 µM each time.

Take `O=C(O)CCCN1CCC[C@@H]1COc1ccc(-n2nc3ccccc3c2Cl)cc1` [Example 17, 4-{(R)-2-[4-(3-Chloro-indazol-2-yl)-phenoxymethyl]-pyrrolidin-1-yl}-butyric acid Hydrochloride]: the IC50 on human LTA4 hydrolase (setting [8]) and on human LTA4 hydrolase (setting [5]) was under 5 µM each time.

With `CNC(=O)C1CCN(CCCOc2ccc(-n3nc4ccccc4c3Cl)cc2)CC1` [Example 9, 1-{3-[4-(3-Chloro-indazol-2-yl)-phenoxy]-propyl}-piperidine-4-carboxylic acid methylamide], the IC50 on human LTA4 hydrolase (setting [7]) and at human LTA4 hydrolase (setting [5]) was under 5 µM each time.

Turning to `O=C(O)C1CCN(CCCOc2ccc(-n3nc4ccccc4c3Cl)cc2)CC1` [Example 8, 1-{3-[4-(3-Chloro-indazol-2-yl)-phenoxy]-propyl}-piperidine-4-carboxylic acid hydrochloride], the IC50 at human LTA4 hydrolase (setting [7]) and at human LTA4 hydrolase (setting [5]) was under 5 µM each time.

As to `NC(=O)C1CCN(CCCOc2ccc(-n3nc4ccccc4c3Cl)cc2)CC1` [Example 10, 1-{3-[4-(3-Chloro-indazol-2-yl)-phenoxy]-propyl}-piperidine-4-carboxylic acid amide], the IC50 on human LTA4 hydrolase (setting [7]) and on human LTA4 hydrolase (setting [5]) was under 5 µM each time.

For the molecule `CN1CCC[C@@H]1COc1ccc(N2Cc3ccccc3C2)cc1`, the IC50 at human LTA4 hydrolase (setting [6]) lay within 5 to 20 µM.

As to `c1ccc2c(c1)cnn2-c1ccc(OC[C@H]2CCCN2)cc1`, the IC50 at human LTA4 hydrolase (setting [6]) is 5 to 20 µM.

Turning to `O=C1c2ccccc2C(=O)N1c1ccc(OC[C@H]2CCCN2)cc1`, on human LTA4 hydrolase (setting [6]), the IC50 was under 5 µM.

Regarding `O=C1c2ccccc2C(=O)N1c1ccc(OCCN2CCCCC2)cc1`, the IC50 at human LTA4 hydrolase (setting [6]) is under 5 µM.

Take `Clc1c2ccccc2nn1-c1ccc(OC[C@@H]2CCCN2)cc1` [Example 13, 3-Chloro-2-[4-((S)-1-pyrrolidin-2-ylmethoxy)-phenyl]-2H-indazole hydrochloride]: the IC50 on human LTA4 hydrolase (setting [8]) and at human LTA4 hydrolase (setting [5]) was under 5 µM each time.

With `CN(CCCOc1ccc(-n2nc3ccccc3c2Cl)cc1)CCC(=O)O` [Example 5, 3-({3-[4-(3-Chloro-indazol-2-yl)-phenoxy]-propyl}-methyl-amino)-propionic acid hydrochloride salt], the IC50 at human LTA4 hydrolase (setting [4]) and on human LTA4 hydrolase (setting [5]) was under 5 µM throughout.

As for `O=C(O)CN1CCC[C@@H]1COc1ccc(-n2nc3ccccc3c2Cl)cc1` [Example 15, {(R)-2-[4-(3-Chloro-indazol-2-yl)-phenoxymethyl]-pyrrolidin-1-yl}-acetic acid Hydrochloride], the IC50 at human LTA4 hydrolase (setting [8]) and at human LTA4 hydrolase (setting [5]) was under 5 µM each time.

On to `Clc1c2ccccc2nn1-c1ccc(OC[C@H]2CCCN2)cc1` [Example 12, 3-Chloro-2-[4-((R)-1-pyrrolidin-2-ylmethoxy)-phenyl]-2H-indazole], for which the IC50 at human LTA4 hydrolase (setting [8]) and at human LTA4 hydrolase (setting [5]) was under 5 µM in each case.

For `CN(CCOc1ccc(-n2nc3ccccc3c2Cl)cc1)CCC(=O)O` [Example 2, 3-({2-[4-(3-Chloro-indazol-2-yl)-phenoxy]-ethyl}-methyl-amino)-propionic acid hydrochloride], the IC50 on human LTA4 hydrolase (setting [4]) and at human LTA4 hydrolase (setting [5]) was under 5 µM in each case.

Consider `OCC1CCN(CCCOc2ccc(-n3nc4ccccc4c3Cl)cc2)CC1` [Example 11, (1-{3-[4-(3-Chloro-indazol-2-yl)-phenoxy]-propyl}-piperidin-4-yl)-methanol], for which the IC50 on human LTA4 hydrolase (setting [7]) and at human LTA4 hydrolase (setting [5]) was under 5 µM throughout.

As to `O=C(O)CCN1CCC[C@@H]1COc1ccc(-n2nc3ccccc3c2Cl)cc1` [Example 16, 3-{(R)-2-[4-(3-Chloro-indazol-2-yl)-phenoxymethyl]-pyrrolidin-1-yl}-propionic acid Hydrochloride], the IC50 on human LTA4 hydrolase (setting [8]) and at human LTA4 hydrolase (setting [5]) was under 5 µM each time.

Regarding `O=C(O)CN1CCC[C@H]1COc1ccc(-n2nc3ccccc3c2Cl)cc1` [Example 18, {(S)-2-[4-(3-Chloro-indazol-2-yl)-phenoxymethyl]-pyrrolidin-1-yl}-acetic acid Hydrochloride], the IC50 on human LTA4 hydrolase (setting [8]) and on human LTA4 hydrolase (setting [5]) was under 5 µM in each case.
